According to patent US20160378912A1, “STRUCTURE-BASED MODELING AND TARGET-SELECTIVITY PREDICTION” (EPIGENETX, LLC, priority 2013, published 2016):
Read-outs that look alike come from different tables or passages of the source.

Tests used:
HDAC10 = biological target: T1, HDAC10 (Homo sapiens, UniProt Q969S8); details: cited from earlier work; for pIC50exp: experimental value of modeled complex; for pIC50: training set composition; for Exp. pIC50: MTS inhibitors
T1 sequence (Q969S8 1-669): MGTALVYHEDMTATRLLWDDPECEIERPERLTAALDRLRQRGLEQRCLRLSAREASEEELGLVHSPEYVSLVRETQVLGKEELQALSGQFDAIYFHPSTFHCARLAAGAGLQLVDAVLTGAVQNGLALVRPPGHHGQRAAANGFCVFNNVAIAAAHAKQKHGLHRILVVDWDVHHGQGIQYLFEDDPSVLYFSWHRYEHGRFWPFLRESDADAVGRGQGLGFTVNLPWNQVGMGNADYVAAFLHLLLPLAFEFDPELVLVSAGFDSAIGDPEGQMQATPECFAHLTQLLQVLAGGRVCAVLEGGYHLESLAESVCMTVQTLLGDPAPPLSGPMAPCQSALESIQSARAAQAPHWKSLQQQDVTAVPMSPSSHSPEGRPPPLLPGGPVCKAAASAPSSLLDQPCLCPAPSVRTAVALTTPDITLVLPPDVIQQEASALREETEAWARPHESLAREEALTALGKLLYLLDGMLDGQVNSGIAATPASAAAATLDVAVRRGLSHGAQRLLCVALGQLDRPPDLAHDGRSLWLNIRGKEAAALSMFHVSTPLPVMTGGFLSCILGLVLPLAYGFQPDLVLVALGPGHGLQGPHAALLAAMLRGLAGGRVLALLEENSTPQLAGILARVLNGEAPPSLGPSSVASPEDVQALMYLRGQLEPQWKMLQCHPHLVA

HDAC4 = HDAC4 (Homo sapiens, UniProt P56524); details: cited from earlier work; for pIC50: training set composition; for IC50: training set, read-out: HDACs inhibitory activities IC50
HDAC isoforms = assay: HDAC inhibition profiled over several HDAC isoforms (experimental); format: biochemical, human; details: range of pIC50 over the profiled HDAC isoforms
HDAC8 = biological target: T2, HDAC8 (Homo sapiens, UniProt Q9BY41); details: cited from earlier work; for pIC50: training set composition
T2 sequence (Q9BY41 1-377): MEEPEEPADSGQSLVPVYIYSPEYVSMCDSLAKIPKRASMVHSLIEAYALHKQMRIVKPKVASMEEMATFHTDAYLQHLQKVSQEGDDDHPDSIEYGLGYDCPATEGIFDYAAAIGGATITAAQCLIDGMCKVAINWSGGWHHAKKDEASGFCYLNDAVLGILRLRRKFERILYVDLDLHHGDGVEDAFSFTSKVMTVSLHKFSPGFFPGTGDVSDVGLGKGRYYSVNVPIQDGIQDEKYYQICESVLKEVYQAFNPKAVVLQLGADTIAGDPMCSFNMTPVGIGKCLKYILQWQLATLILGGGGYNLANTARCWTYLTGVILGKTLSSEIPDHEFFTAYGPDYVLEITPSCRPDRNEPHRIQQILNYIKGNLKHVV

HDAC7 = biological target: T3, HDAC7 (Homo sapiens, UniProt Q8WUI4); details: cited from earlier work
T3 sequence (Q8WUI4 1-952): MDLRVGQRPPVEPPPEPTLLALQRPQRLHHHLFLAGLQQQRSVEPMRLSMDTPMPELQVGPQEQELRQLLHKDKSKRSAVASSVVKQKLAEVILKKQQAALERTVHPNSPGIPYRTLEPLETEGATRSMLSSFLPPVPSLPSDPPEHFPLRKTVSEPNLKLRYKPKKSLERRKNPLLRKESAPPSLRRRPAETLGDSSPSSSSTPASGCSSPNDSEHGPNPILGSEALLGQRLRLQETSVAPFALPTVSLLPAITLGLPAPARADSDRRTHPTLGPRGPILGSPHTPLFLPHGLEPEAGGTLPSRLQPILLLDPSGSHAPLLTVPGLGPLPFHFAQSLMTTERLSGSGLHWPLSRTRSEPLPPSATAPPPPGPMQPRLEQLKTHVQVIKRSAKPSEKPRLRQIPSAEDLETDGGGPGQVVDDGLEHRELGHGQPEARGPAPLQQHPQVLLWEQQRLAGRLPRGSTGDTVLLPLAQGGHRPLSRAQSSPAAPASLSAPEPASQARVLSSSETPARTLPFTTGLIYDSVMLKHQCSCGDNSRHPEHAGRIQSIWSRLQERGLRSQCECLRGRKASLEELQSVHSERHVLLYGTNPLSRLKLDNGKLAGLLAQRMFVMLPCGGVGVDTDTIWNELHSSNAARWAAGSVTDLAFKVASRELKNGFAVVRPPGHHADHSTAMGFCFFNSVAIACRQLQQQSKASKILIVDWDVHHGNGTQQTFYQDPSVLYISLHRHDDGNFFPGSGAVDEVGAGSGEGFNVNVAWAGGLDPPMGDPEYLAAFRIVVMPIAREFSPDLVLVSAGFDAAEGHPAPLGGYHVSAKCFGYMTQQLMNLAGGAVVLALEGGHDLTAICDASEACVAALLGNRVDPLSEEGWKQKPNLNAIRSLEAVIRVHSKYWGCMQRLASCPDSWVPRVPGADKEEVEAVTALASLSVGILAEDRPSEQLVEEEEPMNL

HDAC6 = biological target: T4, HDAC6 (Homo sapiens, UniProt Q9UBN7); details: cited from earlier work; for IC50: HDAC6, MTS, read-out: reported HDACs inhibitory activities IC50; for Exp. pIC50: MTS inhibitors
T4 sequence (Q9UBN7 1-1215): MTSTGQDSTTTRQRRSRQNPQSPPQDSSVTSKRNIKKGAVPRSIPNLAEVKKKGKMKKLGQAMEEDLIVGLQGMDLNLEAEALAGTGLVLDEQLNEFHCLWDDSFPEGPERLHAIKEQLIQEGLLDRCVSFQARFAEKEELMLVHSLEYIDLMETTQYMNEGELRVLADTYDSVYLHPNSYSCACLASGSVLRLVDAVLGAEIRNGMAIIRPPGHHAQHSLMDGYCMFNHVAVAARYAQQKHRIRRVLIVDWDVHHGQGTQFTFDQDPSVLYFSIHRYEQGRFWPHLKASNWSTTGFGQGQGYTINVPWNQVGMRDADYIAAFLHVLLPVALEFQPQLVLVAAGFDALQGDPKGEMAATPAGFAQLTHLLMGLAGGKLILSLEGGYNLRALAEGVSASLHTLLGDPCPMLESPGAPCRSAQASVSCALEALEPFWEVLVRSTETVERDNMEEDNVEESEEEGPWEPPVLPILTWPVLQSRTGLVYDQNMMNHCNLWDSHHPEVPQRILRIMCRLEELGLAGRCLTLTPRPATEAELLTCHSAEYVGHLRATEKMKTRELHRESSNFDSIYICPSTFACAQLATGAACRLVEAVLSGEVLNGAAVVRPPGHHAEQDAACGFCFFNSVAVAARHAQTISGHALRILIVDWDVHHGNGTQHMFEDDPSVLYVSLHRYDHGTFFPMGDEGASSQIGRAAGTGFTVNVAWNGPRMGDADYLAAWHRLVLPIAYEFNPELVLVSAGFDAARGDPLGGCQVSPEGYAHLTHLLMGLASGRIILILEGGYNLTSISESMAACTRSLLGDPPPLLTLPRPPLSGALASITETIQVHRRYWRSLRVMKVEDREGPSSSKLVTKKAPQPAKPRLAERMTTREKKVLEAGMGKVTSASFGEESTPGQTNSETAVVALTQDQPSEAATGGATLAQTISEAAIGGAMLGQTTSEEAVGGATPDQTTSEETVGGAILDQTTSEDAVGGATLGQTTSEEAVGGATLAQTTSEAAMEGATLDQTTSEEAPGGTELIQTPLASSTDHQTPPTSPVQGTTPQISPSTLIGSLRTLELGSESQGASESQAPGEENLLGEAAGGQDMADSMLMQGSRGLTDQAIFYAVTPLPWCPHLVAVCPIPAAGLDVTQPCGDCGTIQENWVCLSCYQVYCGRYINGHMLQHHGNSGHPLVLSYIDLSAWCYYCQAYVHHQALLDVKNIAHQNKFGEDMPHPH

HDAC2 = HDAC2 (Homo sapiens, UniProt Q92769); details: cited from earlier work; for Exp. pIC50: MTS inhibitors
HDAC1 = HDAC1 (Homo sapiens, UniProt Q13547); details: cited from earlier work; for Exp. pIC50: MTS inhibitors
HDAH = biological target: T5, HDAH (Alcaligenes sp., UniProt Q70I53); details: CTS; cited from earlier work
T5 sequence (Q70I53 1-369): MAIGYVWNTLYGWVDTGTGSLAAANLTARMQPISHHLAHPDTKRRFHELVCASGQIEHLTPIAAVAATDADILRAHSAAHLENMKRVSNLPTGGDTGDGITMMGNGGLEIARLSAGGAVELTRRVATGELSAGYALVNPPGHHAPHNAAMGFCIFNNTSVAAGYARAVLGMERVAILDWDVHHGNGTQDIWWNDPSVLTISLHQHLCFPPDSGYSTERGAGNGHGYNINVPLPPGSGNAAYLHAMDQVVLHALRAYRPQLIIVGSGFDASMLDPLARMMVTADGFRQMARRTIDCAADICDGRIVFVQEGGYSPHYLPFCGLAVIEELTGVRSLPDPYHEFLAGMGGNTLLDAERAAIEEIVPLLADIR

HDAC3 = HDAC3 (Homo sapiens, UniProt O15379); details: cited from earlier work
[1] = training set, read-out: HDACs inhibitory activities IC50
[2] = MTS, read-out: reported HDACs inhibitory activities IC50
[3] = HDAC6, listed with HDAC6-1 complexes
[4] = HDAC6, listed with HDAC6-2 complexes
[5] = co-crystallized ligand, read-out: IC50

HDAC4, sequence (P56524 whole entry, canonical isoform): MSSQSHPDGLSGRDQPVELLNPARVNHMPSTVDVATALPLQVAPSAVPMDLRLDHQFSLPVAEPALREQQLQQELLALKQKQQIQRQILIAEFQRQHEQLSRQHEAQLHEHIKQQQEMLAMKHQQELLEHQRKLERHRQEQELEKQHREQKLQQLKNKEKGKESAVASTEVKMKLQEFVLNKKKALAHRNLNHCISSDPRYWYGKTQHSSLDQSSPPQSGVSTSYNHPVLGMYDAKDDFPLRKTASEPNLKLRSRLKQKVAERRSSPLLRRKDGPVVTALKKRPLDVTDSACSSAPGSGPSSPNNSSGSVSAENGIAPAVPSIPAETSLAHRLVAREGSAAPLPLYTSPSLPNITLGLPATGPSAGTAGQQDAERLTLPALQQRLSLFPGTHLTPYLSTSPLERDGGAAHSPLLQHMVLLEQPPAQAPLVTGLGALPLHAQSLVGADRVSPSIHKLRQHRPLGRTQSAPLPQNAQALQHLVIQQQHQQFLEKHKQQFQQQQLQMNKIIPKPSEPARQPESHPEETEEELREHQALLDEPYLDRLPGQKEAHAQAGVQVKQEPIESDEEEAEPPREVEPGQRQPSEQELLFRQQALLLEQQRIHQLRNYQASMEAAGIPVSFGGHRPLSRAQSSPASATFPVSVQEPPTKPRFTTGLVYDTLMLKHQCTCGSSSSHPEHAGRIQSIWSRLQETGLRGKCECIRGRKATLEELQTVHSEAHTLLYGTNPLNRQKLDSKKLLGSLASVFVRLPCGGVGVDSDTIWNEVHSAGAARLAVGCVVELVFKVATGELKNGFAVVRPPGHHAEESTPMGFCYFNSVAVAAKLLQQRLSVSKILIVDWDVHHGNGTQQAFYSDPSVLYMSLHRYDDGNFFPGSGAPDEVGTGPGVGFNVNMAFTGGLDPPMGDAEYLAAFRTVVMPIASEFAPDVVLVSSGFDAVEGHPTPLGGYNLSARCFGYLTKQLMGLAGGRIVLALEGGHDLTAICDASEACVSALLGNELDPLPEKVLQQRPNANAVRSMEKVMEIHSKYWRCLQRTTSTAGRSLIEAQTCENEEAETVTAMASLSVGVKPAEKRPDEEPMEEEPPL
HDAC1, sequence (Q13547 whole entry): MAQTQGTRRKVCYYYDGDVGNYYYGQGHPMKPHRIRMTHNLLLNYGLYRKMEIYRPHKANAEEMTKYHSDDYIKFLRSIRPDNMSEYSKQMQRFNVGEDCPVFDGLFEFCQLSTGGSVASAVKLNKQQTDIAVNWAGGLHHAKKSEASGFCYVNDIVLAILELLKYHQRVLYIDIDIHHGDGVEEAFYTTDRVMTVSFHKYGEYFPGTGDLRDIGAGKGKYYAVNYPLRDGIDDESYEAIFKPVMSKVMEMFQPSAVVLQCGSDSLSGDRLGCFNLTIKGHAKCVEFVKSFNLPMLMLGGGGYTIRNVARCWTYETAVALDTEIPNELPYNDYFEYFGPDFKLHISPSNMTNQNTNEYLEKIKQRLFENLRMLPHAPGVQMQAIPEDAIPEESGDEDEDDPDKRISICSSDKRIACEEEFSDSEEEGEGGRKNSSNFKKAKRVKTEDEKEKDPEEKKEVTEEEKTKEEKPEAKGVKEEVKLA
HDAC2, sequence (Q92769 whole entry): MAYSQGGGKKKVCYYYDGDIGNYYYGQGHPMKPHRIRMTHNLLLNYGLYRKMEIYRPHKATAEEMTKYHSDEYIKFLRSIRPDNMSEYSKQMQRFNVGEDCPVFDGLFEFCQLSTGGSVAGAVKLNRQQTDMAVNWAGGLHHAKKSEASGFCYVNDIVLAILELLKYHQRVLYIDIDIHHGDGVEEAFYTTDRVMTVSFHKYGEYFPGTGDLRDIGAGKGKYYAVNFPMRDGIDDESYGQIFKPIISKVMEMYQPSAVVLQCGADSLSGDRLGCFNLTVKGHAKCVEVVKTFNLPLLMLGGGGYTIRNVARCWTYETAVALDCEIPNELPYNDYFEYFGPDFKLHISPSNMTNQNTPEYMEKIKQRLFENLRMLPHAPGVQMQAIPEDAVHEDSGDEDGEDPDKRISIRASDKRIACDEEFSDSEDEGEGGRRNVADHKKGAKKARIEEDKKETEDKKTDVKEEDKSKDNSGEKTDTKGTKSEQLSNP
HDAC3, sequence (O15379 whole entry): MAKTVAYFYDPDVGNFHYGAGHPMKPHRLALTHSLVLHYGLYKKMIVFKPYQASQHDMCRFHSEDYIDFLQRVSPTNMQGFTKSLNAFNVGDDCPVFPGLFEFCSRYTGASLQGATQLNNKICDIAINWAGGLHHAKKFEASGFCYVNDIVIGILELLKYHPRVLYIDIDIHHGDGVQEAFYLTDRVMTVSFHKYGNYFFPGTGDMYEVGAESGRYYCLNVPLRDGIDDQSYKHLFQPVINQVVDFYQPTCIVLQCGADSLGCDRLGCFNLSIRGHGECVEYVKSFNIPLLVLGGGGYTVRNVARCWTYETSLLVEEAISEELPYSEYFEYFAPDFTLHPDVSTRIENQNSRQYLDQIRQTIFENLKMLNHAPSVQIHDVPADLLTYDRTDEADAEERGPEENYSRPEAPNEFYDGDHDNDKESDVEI
HDAC3, sequence (Q9Y618 395-489 partner limits assumed): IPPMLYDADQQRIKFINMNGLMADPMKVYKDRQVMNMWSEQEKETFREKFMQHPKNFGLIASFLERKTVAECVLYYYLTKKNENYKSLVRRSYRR

Molecule: Oxamflatin
- pIC50exp (HDAC10): 7.301
- pIC50 (HDAC10): 7.30
- IC50 (HDAC10; [1]): 0.05 µM
- pIC50 (HDAC4): 7.52
- IC50 (HDAC4): 0.03 µM
- Bioactivity range (ΔpIC50) DpIC50 (HDAC isoforms): 2.34

Molecule: CNC(=O)/C(CCCCCCC(=O)Nc1cccc(-c2ccc(Cl)nc2)c1)=N\O [JMC-23]
- IC50 (HDAC8; [2]): 100 µM

Molecule: N[C@H](Cc1ccc(Cl)cc1Cl)C(=O)N1CCN(C(=O)c2ccc(F)cc2F)CC1 [0DI]
- IC50 (HDAC8; CTS, read-out: IC50): 0.2 µM
- Experimental pIC50 (HDAC8; CTS): 6.70

Molecule: Cn1cc(C(=O)Cc2ccccc2)cc1/C=C/C(=O)NO [APHA8, (2E)-N-hydroxy-3-[1-methyl-4-(phenylacetyl)-1H-pyrrol-2-yl]prop-2-enamide]
- pIC50 (HDAC4): 5.51
- IC50 (HDAC4): 3.1 µM
- pIC50 (HDAC7; training set composition): 5.51
- IC50 (HDAC7; [1]): 3.1 µM
- Bioactivity range (ΔpIC50) DpIC50 (HDAC isoforms): 1.87

Molecule: CC(C)(C)OC(=O)Nc1cccc(-c2csc(NC(=O)CCCCCCC(=O)NO)n2)c1 [CMC-25b]
- Exp. pIC50 (HDAC10): 8.70
- IC50 (HDAC10; [2]): 0.002 µM
- IC50 (HDAC6): 0.0002 µM
- Exp. pIC50 (HDAC6; [3]): 9.70
- Exp. pIC50 (HDAC6; [4]): 9.70
- Exp. pIC50 (HDAC2): 7.13

Molecule: C[C@@H](NC(=O)c1ccc(C(=O)C(F)(F)F)s1)c1ccccc1 [MCL08-3d]
- Exp. pIC50 (HDAC1): 6.50

Molecule: O=C(CCC1CCCC1)NO [3YP, 3-cyclopentyl-n-hydroxypropanamide]
- Experimental pIC50 (HDAH): 6.54
- IC50 (HDAH): 0.29 µM

Molecule: CN(c1ccc(C(=O)NO)cc1)S(=O)(=O)c1ccc(-c2ccccn2)s1 [NHB, N-hydroxy-4-{methyl[(5-pyridin-2-ylthiophen-2-yl)sulfonyl]amino}benzamide]
- IC50 (HDAC8; [5]): 0.175 µM
- pIC50 (HDAC8): 6.76

Molecule: O=C(CCCCCCC(=O)C(F)(F)F)Nc1ccccc1 [CF3, 9,9,9-trifluoro-8-oxo-n-phenylnonanamide]
- Experimental pIC50 (HDAH): 4.95
- IC50 (HDAH): 11.2 µM

Molecule: SCRIPTAID
- Bioactivity range (ΔpIC50) DpIC50 (HDAC isoforms): 2.76

Molecule: CC(C)(C)OC(=O)Nc1ccccc1-c1ccc(NC(=O)CCCCCCC(=O)NO)cc1 [CMC-7f]
- Exp. pIC50 (HDAC10): 7.08
- IC50 (HDAC10; [2]): 0.083 µM
- Exp. pIC50 (HDAC1): 7.24
- IC50 (HDAC1; [2]): 0.057 µM
- Exp. pIC50 (HDAC3; MTS inhibitors): 7.75
- IC50 (HDAC3; [2]): 0.018 µM
- IC50 (HDAC6): 0.011 µM
- Exp. pIC50 (HDAC6; [3]): 7.96
- Exp. pIC50 (HDAC6; [4]): 7.96
- Exp. pIC50 (HDAC2): 7.13
- IC50 (HDAC2; [2]): 0.074 µM
- Exp. pIC50 (HDAC8; MTS inhibitors): 5.76
- IC50 (HDAC8; [2]): 1.72 µM

Molecule: 4-dimethylamino-n-(6- hydroxycarbamoyethyl) benzamide-n-hydroxy-7-(4- dimethylaminobenzoyl) aminoheptanamide [MS-344]
- IC50 (HDAC8; [5]): 0.249 µM
- pIC50 (HDAC8): 6.60

Molecule: MS-275
- Bioactivity range (ΔpIC50) DpIC50 (HDAC isoforms): 2.63

Molecule: CCCC(CCC)C(=O)O [VALP, valproic acid]
- pIC50exp (HDAC10): 3
- pIC50 (HDAC10): 3.00
- IC50 (HDAC10; [1]): 1000 µM
- pIC50exp (HDAC1; experimental value of modeled complex): 3
- pIC50 (HDAC1; training set composition): 3.00
- IC50 (HDAC1; [1]): 1000 µM
- Bioactivity range (ΔpIC50) DpIC50 (HDAC isoforms): 0.95
